Laboratory results taken from paper PMC3545186 (Biochemical Pharmacology, 2013).
Like-named read-outs stand apart in the source and are kept apart here. Numbered stars: 1 amine (or outer) side, 2 acyl side, 3 side chain; on linkers, the order of the positions; unused ones are H or OH. Bridge positions count the residues as written; N and C are the ends. Square brackets hold non-standard residues; d marks the D form. Peptide text beside a SMILES is read from it. I, II: the chains in the order shown. Actinocin(9to1) = Cc1c2oc3c(C)ccc(C(=O)[*:1])c3nc-2c(C(=O)[*:2])c(N)c1=O; NMeV = CN[C@H](C(=O)O)C(C)C; Sar = CNCC(=O)O

How the values were obtained:
[1] = format: in vivo, mice; conditions: for Liver AUC0–6 h / Liver AUC0–∞ / Liver Cmax / Brain peak area / Kidney concentration / Liver concentration / Brain AUC0–6 h (peak area) / Brain Cmax (peak area) / Kidney AUC0–6 h / Kidney AUC0–∞ / Kidney Cmax: 0.5 mg/kg i.v.; for Brain peak area / Kidney concentration / Liver concentration: per gram of tissue
[2] = Act D treatment; cited from earlier work
[3] = paediatric patient population; cited from earlier work

## Cc1c2oc3c(C)ccc(C(=O)N[C@@H]4C(=O)N[C@H](C(C)C)C(=O)N5CCC[C@H]5C(=O)N(C)CC(=O)N(C)[C@@H](C(C)C)C(=O)O[C@@H]4C)c3nc-2c(C(=O)N[C@@H]2C(=O)N[C@H](C(C)C)C(=O)N3CCC[C@H]3C(=O)N(C)CC(=O)N(C)[C@@H](C(C)C)C(=O)O[C@@H]2C)c(N)c1=O [Act D, actinomycin D] (I: T[dV]P[Sar][NMeV] / II: T[dV]P[Sar][NMeV]; ester I:1-I:C, II:1-II:C; linker I:N-II:N via Actinocin(9to1))
[1]; Abcb1a/1b−/− mice
  Liver AUC0–6 h: 4.616 µg·h/mL
  Liver AUC0–∞: 6.594 µg·h/mL
  Liver Cmax: 2.323 ± 0.239 µg/mL
[1]; Abcb1a/1b−/− mice, 0.25 h
  Brain peak area: 1134 ± 635 pa
  Kidney concentration: 13,207 ± 1025 μg/L
  Liver concentration: 2323 ± 239 µg/L
[1]; Abcb1a/1b−/− mice, 0.5 h
  Brain peak area: 1420 ± 521 pa
  Kidney concentration: 13,163 ± 2521 μg/L
  Liver concentration: 1367 ± 133 µg/L
[1]; Abcb1a/1b−/− mice, 2 h
  Brain peak area: 912.7 ± 461 pa
  Kidney concentration: 5327 ± 1257 µg/L
  Liver concentration: 737 ± 172 µg/L
[1]; Abcb1a/1b−/− mice, 6 h
  Brain peak area: 1383 ± 439 pa
  Kidney concentration: 2957 ± 872 µg/L
  Liver concentration: 407 ± 9 µg/L
[1]; Abcc2−/− mice
  Brain AUC0–6 h (peak area): 3785 pa/g h
  Brain Cmax (peak area): 1039 ± 181 pa
  Kidney AUC0–6 h: 33,079 μg/L h
  Kidney AUC0–∞: 48,799 μg/L h
  Kidney Cmax: 13,107 ± 2318 μg/L
  Liver AUC0–6 h: 4.445 µg·h/mL
  Liver AUC0–∞: 5.516 µg·h/mL
  Liver Cmax: 1.54 ± 0.356 µg/mL
[1]; Abcc2−/− mice, 0.25 h
  Brain peak area: 972 ± 455 pa
  Kidney concentration: 13,107 ± 2318 μg/L
  Liver concentration: 1317 ± 302 µg/L
[1]; Abcc2−/− mice, 0.5 h
  Brain peak area: 1039 ± 181 pa
  Kidney concentration: 10,593 ± 944 μg/L
  Liver concentration: 1540 ± 356 µg/L
[1]; Abcc2−/− mice, 2 h
  Brain peak area: 424.3 ± 120 pa
  Kidney concentration: 4987 ± 161 µg/L
  Liver concentration: 787 ± 99 µg/L
[1]; Abcc2−/− mice, 6 h
  Brain peak area: 733 ± 470 pa
  Kidney concentration: 3410 ± 527 µg/L
  Liver concentration: 303 ± 128 µg/L
[1]; WT mice
  Brain AUC0–6 h (peak area): 2943 pa/g h
  Brain Cmax (peak area): 1071 ± 217 pa
  Kidney AUC0–6 h: 29,552 μg/L h
  Kidney AUC0–∞: 35,754 μg/L h
  Kidney Cmax: 13,323 ± 3960 μg/L
  Liver AUC0–6 h: 4.473 µg·h/mL
  Liver AUC0–∞: 5.387 µg·h/mL
  Liver Cmax: 1.81 ± 0.155 µg/mL
[1]; WT mice, 0.25 h
  Brain peak area: 1071 ± 217 pa
  Kidney concentration: 13,323 ± 3960 μg/L
  Liver concentration: 1810 ± 155 µg/L
[1]; WT mice, 0.5 h
  Brain peak area: 775.3 ± 127 pa
  Kidney concentration: 10,713 ± 2498 μg/L
  Liver concentration: 1593 ± 167 µg/L
[1]; WT mice, 2 h
  Brain peak area: 501 ± 28.9 pa
  Kidney concentration: 4693 ± 415 µg/L
  Liver concentration: 747 ± 165 µg/L
[1]; WT mice, 6 h
  Brain peak area: 309 ± 156 pa
  Kidney concentration: 1970 ± 150 µg/L
  Liver concentration: 287 ± 40 µg/L
[1]; irrespective of transporter knockout genotype
  Act D accumulation over 6 h in the kidneys higher than the liver: 6.6- to 7.7 fold
[2]
  incidence of liver toxicities: 1.7–13.5 % of cases
[3]
  range in AUC0–6 h between patients: > 4 fold
